This is an account of results in US7910624B1, “Compositions for the treatment of blood disorders” (The Trustees of Boston University, priority 1995, dated 2011).

One assay deals with bone marrow cells. The conditions noted are these: continuous intravenous administration; cited from earlier work.
Assay [1] concerns BFU-e (burst forming unit-erythroid) colonies from peripheral blood mononuclear cells. In words: Stimulation of erythroid proliferation in cell cultures (BFU-e colony growth). Type of assay: cell-based, human. The settings on record: 0.1 mM; 13-14 days; compared with control cultures. How it is done: Peripheral blood was collected from normal volunteers and patients with anemia due to sickle cell disease or thalassemia. Mononuclear cells were isolated by Ficoll-Hypaque (Pharmacia Biotech; Piscataway, N.J.) centrifugation and cultured in Iscove's Modified Dulbecco's Media (IMDM; GIBCO/BRL; Grand Island, N.Y.) supplemented with 10% fetal calf serum, 300 μg/ml glutamine, 3 units/ml IL-3 (Amgen; Thousand Oaks, Calif.), and 2 units/ml erythropoietin (Terry Fox Labs; Vancouver, B.C.). Chemical compounds were obtained from Sigma Chemical (St. Louis, Mo.) or Aldrich Chemical (Milwaukee, Wis.), unless otherwise indicated, and formulated into pharmaceutical compositions by dissolving in aqueous solutions of media or sterile water pH adjusted to about 7.4. Solutions were sterilized by passage at least once through 0.22 micron Nalgene filters and added to cell cultures at final concentrations that are pharmaceutically achievable in vivo (typically between about 0.1 mM to 2.0 mM). Cells were incubated with compounds for between 13-14 days at 37° C. in humidified 5% CO2, and fed and passed, as necessary. Colony growth, proportion of fetal globin-expressing cells and amounts of fetal globin production were assayed. Results are presented in Table 1 as BFU-e stimulation (colony growth).

For assay [2], the system named is erythroid cells (peripheral blood cells). Kind of assay: Erythroid cell viability by Calcein-AM fluorescent staining (FIG. 2). Type of assay: cell-based. The conditions noted are these: 0.5 mM. How it is done:
Compositions were tested for the ability to directly stimulate erythroid cell growth. Cell growth stimulation is a useful property for an agent to be used to treat anemias and distinguishes such agents from the cytotoxic drugs currently being tested for treatment of hemoglobinopathies. Cell viability analyses were performed using fluorescent staining to detect living cells. Cells were in log phase of growth in 6-well dishes when used in proliferation assays. For enumeration of living cells, wells were washed once with medium to remove nonadherent or dead cells. Remaining live cells were labeled with 2 μM 2′,7′-bis-(carboxyethyl)-5-(and 6)-carboxy-fluorescein acetoxy-methyl ester (Calcein-AM) (Molecular Probes; Eugene, Oreg.) for 20 minutes at 37° C. and washed once. Fluorescence intensity of live cells was read on a CytoFluor 2300 Fluorescence Plate Scanner (Millipore; Bedford, Mass.) at excitation and emission wavelengths of 485 and 530 nm, respectively. The fluorescence intensity of a well was proportional to the number of living cells in the well. Background fluorescence was measured separately for each plate and subtracted from all readings. Each experiment was performed in triplicate or quadruplicate. The standard deviation (SD) of repetitive readings was less than 30% of the mean. Results are depicted in FIG. 2.

Assay [3] has as its system erythroid progenitor cells cultured from human cord blood. In words: Fetal globin expression in human cell cultures (3H-leucine labelled globin chains, densitometry). Type of assay: cell-based. On the procedure: Compositions were tested for activity in inducing fetal globin expression and protein production in erythroid progenitor cells cultured from human cord blood and analyzed as described by S. P. Perrine et al. (Blood 74: 454-60, 1989). Briefly, mononuclear cells were cultured in IMDM with 30% fetal calf serum and 2 units erythropoietin per ml to induce erythroid differentiation. Colonies were harvested on day 12-13, incubated with radio-labelled (^3H) leucine, and further incubated in leucine-free media, still in the presence of compounds, overnight. Globin composition in the erythroid cells was analyzed by laser densitometry of electrophoretically separated globin chains stained with Coomassie blue, and by autoradiography. Treated cells were incubated for 12-13 days (Table 2, Experiments A and B) or overnight (Table 2, Experiment C) in the presence of the indicated compounds and compared to untreated control cells cultured from the same human subject.

The test system of assay [4] is human erythroid cell line K562. Kind of assay: Cell viability / growth of K562 by Calcein-AM fluorescence. Type of assay: cell-based. The settings on record: 0.5 mM; over 3 days. On the procedure: Such activities might limit their utility for treatment of anemias such as occur in thalassemia, but alternatively would be useful for anticancer effects. To determine cell viability, human erythroid cells were cultured in the presence and absence of these compounds for 4 days and the amount of DNA fragmentation which occurred was measured.
Cell viability analyses were performed using fluorescent staining to detect living cells. Cells were in log phase of growth in 6-well dishes when used in proliferation assays. For enumeration of living cells, wells were washed once with medium to remove nonadherent or dead cells. Remaining live cells were labeled with Calcein-AM for 20 minutes at 37° C. and washed once. Fluorescence intensity of adherent live cells was read on a CytoFluor 2300 Fluorescence Plate Scanner (Millipore; Bedford, Mass.) at excitation and emission wavelengths of 485 and 530 nm, respectively. The fluorescence intensity of a well was proportional to the number of living cells in the well. Background fluorescence was measured separately for each plate and subtracted from all readings. Each experiment was performed in triplicate or quadruplicate. The standard deviation (SD) of repetitive readings was less than 30% of the mean.
At higher concentrations, still easily achievable in vivo, arginine butyrate (0.5 mM) and dihydrocinnamic acid (greater than 0.5 mM) inhibited growth of this tumor cell line by approximately 50%. Therefore, these compounds are also useful as anti-tumor agents.

In the next assay the test system is anemic juvenile baboons. Kind of assay: In vivo reticulocyte proliferation and globin expression in phlebotomized anemic baboons. Set-up: species or system baboon. On the procedure: Experiments were performed to determine if administration of the chemical compositions could induce fetal globin gene expression in an in vivo model similar to humans (S. P. Perrin et al., Brit. J. Haematol. 88:555-61, 1994). Briefly, chemicals were prepared as sterile pharmaceutical solutions in pH adjusted sterile water. A variety of chemical compositions were administered sequentially to some baboons. After administration of one compound, a wash-out period with no compound administration was maintained until reticulocytes returned to base line prior to administration of the next compound. This was done, at least partly, to compare the magnitude of response which occurred within the same individual animal to different compounds.
Briefly, juvenile female baboons (2 years old) were catheterized with arterial and venous catheters and phlebotomized gradually every day to maintain a moderate anemia of 7.0 to 7.5 grams hemoglobin/dl. Fetal reticulocytes, the newly produced red blood cells containing fetal globin, were assayed using a monoclonal antibody against fetal globin (HbF) as described by G. Dover et al. (Blood 67:735-38, 1986). Briefly, blood was stained with two antibodies, one specific for reticulocytes and another against fetal globin protein. The amount of antibody bound cells was determined by FACS analysis. Globin chain synthesis was assayed as described by J. B. Clegg et al. (J. Mol. Biol. 19:91-108, 1966). Briefly, reticulocytes were radio-labeled with ^3H-leucine which was incorporated in equal proportions into actively synthesized globin chains. After incubation in leucine-free media, cells were washed, and globin proteins were separated and purified by column chromatography. Radioactivity incorporated into each peak is compared and the ratios of gamma to gamma plus beta globin calculated. Each animal served as its own control with baseline monitoring assays performed for 4-6 weeks before any drug was administered. Phlebotomy was continued daily, so that peripheral HbF levels in the animals were not considered to be accurate over the short treatment time-frames and were not monitored. Safety monitoring was performed by frequent physical examinations, quantitation of food eaten, activity and frequent chemistry and hematology monitoring. Complete blood counts were assayed before, during and after treatment. Results presented were not adjusted to account for the daily phlebotomy.

Turning to `Nc1ncn([C@@H]2O[C@H](CO)[C@@H](O)[C@H]2O)c(=O)n1` [AZA, 5-azacytidine], the “increase in γ globin mRNA of bone marrow cells” value with bone marrow cells was “five- to seven-fold”.

On to `O=C(O)CCc1ccccc1` [DHC, Dihydrocinnamic acid], for which, in assay [1], the “BFU-e Stimulation (colony growth)” value came to 124%. Besides, the “erythroid cell growth and proliferation compared to untreated controls (FIG. 2)” value in assay [2] was “either had no effect or stimulated erythroid cell growth and proliferation”. Moreover, the “Gamma Increase” value in assay [3] (Exp. A, 0.1 mM, 12-13 days, above untreated cells) is reported as 12.0%; in assay [3] (Exp. C, 0.1 mM, overnight), 24%; in assay [3] (Exp. C, 0.2 mM, overnight), 20.0%; in assay [3] (Exp. C, 0.5 mM, overnight) it was 19%. Moreover, the “growth of K562” value in assay [4] is “either did not inhibit, or slightly enhanced growth”. In addition, the “fetal reticulocytes after treatment” value in the assay with anemic juvenile baboons (infused 4 days, 300 to 500 mg/kg per day, from 10%) stood at 17%. Also, in the assay with anemic juvenile baboons (intravenous 1,000 mg/kg/day, 4 days, from 2.3), the “red blood cell count after treatment” value was 2.73 ×10^6 cells/μl. In the assay with anemic juvenile baboons (intravenous 1,000 mg/kg/day, 4 days, from 6.6), the “total hemoglobin after treatment” value is listed as 7.3 grams/dl. Moreover, the “packed red blood cell volume after treatment” value in the assay on anemic juvenile baboons (intravenous 1,000 mg/kg/day, 4 days, from 20.9%) is listed as 22.7 % of the blood.
